# Results taken from PubChem BioAssay (NCI).
#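 Exposure lasted 48 hours, with cells grown in 96-well plates and compounds tested at five concentrations. At the GI50, growth is halved. Definition used: TGI = concentration required for complete inhibition of growth.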
# How the values were obtained:
# Assay in all cases: DTP human tumour cell line panel, 48 h
# RPMI-8226 leukemia = test system: RPMI-8226 leukemia
# NCI-H226 lung = test system: NCI-H226 lung
# CCRF-CEM leukemia = test system: CCRF-CEM leukemia
# BT-549 breast = test system: BT-549 breast
# MALME-3M melanoma = test system: MALME-3M melanoma
# SK-MEL-5 melanoma = test system: SK-MEL-5 melanoma
# HL-60(TB) leukemia = test system: HL-60(TB) leukemia
# SNB-19 CNS = test system: SNB-19 CNS
# LOX IMVI melanoma = test system: LOX IMVI melanoma
# SR leukemia = test system: SR leukemia
# HCC-2998 colon = test system: HCC-2998 colon
# KM12 colon = test system: KM12 colon
# DU-145 prostate = test system: DU-145 prostate
# OVCAR-5 ovarian = test system: OVCAR-5 ovarian
# NCI-H460 lung = test system: NCI-H460 lung
# HCT-116 colon = test system: HCT-116 colon
# U251 CNS = test system: U251 CNS
# MDA-MB-435 = test system: MDA-MB-435
# T-47D breast = test system: T-47D breast
# SF-268 CNS = test system: SF-268 CNS
# TK-10 renal = test system: TK-10 renal
# K-562 leukemia = test system: K-562 leukemia
# PC-3 prostate = test system: PC-3 prostate
# HT29 colon = test system: HT29 colon
# MCF7 breast = test system: MCF7 breast
# SK-MEL-2 melanoma = test system: SK-MEL-2 melanoma
# 786-0 renal = test system: 786-0 renal
# MOLT-4 leukemia = test system: MOLT-4 leukemia
# SK-OV-3 ovarian = test system: SK-OV-3 ovarian
# UACC-62 melanoma = test system: UACC-62 melanoma
# A549 NSCLC = test system: A549 NSCLC
# COLO 205 colon = test system: COLO 205 colon
# HOP-92 NSCLC = test system: HOP-92 NSCLC
# RXF 393 renal = test system: RXF 393 renal
# A498 renal = test system: A498 renal
# NCI-H23 lung = test system: NCI-H23 lung
# HOP-62 NSCLC = test system: HOP-62 NSCLC
# SF-539 CNS = test system: SF-539 CNS
# EKVX NSCLC = test system: EKVX NSCLC
# NCI/ADR-RES ovarian = test system: NCI/ADR-RES ovarian
# OVCAR-8 ovarian = test system: OVCAR-8 ovarian
# UACC-257 melanoma = test system: UACC-257 melanoma
# UO-31 renal = test system: UO-31 renal
# NCI-H522 lung = test system: NCI-H522 lung
# SNB-75 CNS = test system: SNB-75 CNS
# OVCAR-3 ovarian = test system: OVCAR-3 ovarian
# SK-MEL-28 melanoma = test system: SK-MEL-28 melanoma
# M14 melanoma = test system: M14 melanoma
# HCT-15 colon = test system: HCT-15 colon
# ACHN renal = test system: ACHN renal
# SW-620 colon = test system: SW-620 colon
# CAKI-1 renal = test system: CAKI-1 renal
# MDA-MB-231 breast = test system: MDA-MB-231 breast
# SN12C renal = test system: SN12C renal
# SF-295 CNS = test system: SF-295 CNS
# HS 578T breast = test system: HS 578T breast
# OVCAR-4 ovarian = test system: OVCAR-4 ovarian
# IGROV1 ovarian = test system: IGROV1 ovarian
compound,measurement,setting,value
O=C(NC1=CC(=O)c2ccccc2C1=O)c1ccccc1,GI50,RPMI-8226 leukemia,0.355 µM
same,TGI,RPMI-8226 leukemia,> 100 µM
same,GI50,NCI-H226 lung,2.67 µM
same,TGI,NCI-H226 lung,15.7 µM
same,GI50,CCRF-CEM leukemia,0.872 µM
same,GI50,BT-549 breast,0.706 µM
same,TGI,BT-549 breast,14.9 µM
same,GI50,MALME-3M melanoma,1.7 µM
same,TGI,MALME-3M melanoma,3.27 µM
same,GI50,SK-MEL-5 melanoma,0.399 µM
same,TGI,SK-MEL-5 melanoma,1.48 µM
same,GI50,HL-60(TB) leukemia,0.639 µM
same,TGI,HL-60(TB) leukemia,2.53 µM
same,GI50,SNB-19 CNS,2.9 µM
same,TGI,SNB-19 CNS,16.4 µM
same,GI50,LOX IMVI melanoma,1.08 µM
same,TGI,LOX IMVI melanoma,2.63 µM
same,GI50,SR leukemia,0.709 µM
same,TGI,SR leukemia,4.85 µM
same,GI50,HCC-2998 colon,1.27 µM
same,TGI,HCC-2998 colon,14.3 µM
same,GI50,KM12 colon,0.353 µM
same,TGI,KM12 colon,11.5 µM
same,GI50,DU-145 prostate,1.71 µM
same,TGI,DU-145 prostate,3.46 µM
same,GI50,OVCAR-5 ovarian,1.18 µM
same,TGI,OVCAR-5 ovarian,15.5 µM
same,GI50,NCI-H460 lung,0.643 µM
same,TGI,NCI-H460 lung,13.1 µM
same,GI50,HCT-116 colon,0.409 µM
same,TGI,HCT-116 colon,1.6 µM
same,GI50,U251 CNS,0.42 µM
same,TGI,U251 CNS,11.6 µM
same,GI50,MDA-MB-435,0.94 µM
same,TGI,MDA-MB-435,2.29 µM
same,GI50,T-47D breast,0.777 µM
same,TGI,T-47D breast,2.68 µM
same,GI50,SF-268 CNS,1.21 µM
same,TGI,SF-268 CNS,13.8 µM
same,GI50,TK-10 renal,2.71 µM
same,TGI,TK-10 renal,5.38 µM
same,GI50,K-562 leukemia,0.694 µM
same,TGI,K-562 leukemia,> 100 µM
same,GI50,PC-3 prostate,0.421 µM
same,TGI,PC-3 prostate,2.44 µM
same,GI50,HT29 colon,2.33 µM
same,TGI,HT29 colon,4.9 µM
same,GI50,MCF7 breast,1.05 µM
same,TGI,MCF7 breast,2.76 µM
same,GI50,SK-MEL-2 melanoma,0.534 µM
same,TGI,SK-MEL-2 melanoma,15.7 µM
same,GI50,786-0 renal,3.01 µM
same,TGI,786-0 renal,17.2 µM
same,GI50,MOLT-4 leukemia,2.04 µM
same,TGI,MOLT-4 leukemia,6.22 µM
same,GI50,SK-OV-3 ovarian,3.06 µM
same,TGI,SK-OV-3 ovarian,14.3 µM
same,GI50,UACC-62 melanoma,0.24 µM
same,TGI,UACC-62 melanoma,0.799 µM
same,GI50,A549 NSCLC,2.91 µM
same,TGI,A549 NSCLC,16.4 µM
same,GI50,COLO 205 colon,1.8 µM
same,TGI,COLO 205 colon,3.31 µM
same,GI50,HOP-92 NSCLC,0.572 µM
same,TGI,HOP-92 NSCLC,2.6 µM
same,GI50,RXF 393 renal,1.4 µM
same,TGI,RXF 393 renal,3.12 µM
same,GI50,A498 renal,4.46 µM
same,TGI,A498 renal,17.5 µM
same,GI50,NCI-H23 lung,1.12 µM
same,TGI,NCI-H23 lung,9.5 µM
same,GI50,HOP-62 NSCLC,2.76 µM
same,TGI,HOP-62 NSCLC,16 µM
same,GI50,SF-539 CNS,0.284 µM
same,TGI,SF-539 CNS,0.913 µM
same,GI50,EKVX NSCLC,0.729 µM
same,TGI,EKVX NSCLC,7.63 µM
same,GI50,NCI/ADR-RES ovarian,1.26 µM
same,TGI,NCI/ADR-RES ovarian,14.9 µM
same,GI50,OVCAR-8 ovarian,1.67 µM
same,TGI,OVCAR-8 ovarian,5.63 µM
same,GI50,UACC-257 melanoma,1.22 µM
same,TGI,UACC-257 melanoma,2.57 µM
same,GI50,UO-31 renal,0.481 µM
same,TGI,UO-31 renal,2.18 µM
same,GI50,NCI-H522 lung,0.702 µM
same,TGI,NCI-H522 lung,2.76 µM
same,GI50,SNB-75 CNS,0.373 µM
same,TGI,SNB-75 CNS,8.1 µM
same,GI50,OVCAR-3 ovarian,0.685 µM
same,TGI,OVCAR-3 ovarian,2.01 µM
same,GI50,SK-MEL-28 melanoma,0.841 µM
same,TGI,SK-MEL-28 melanoma,15.3 µM
same,GI50,M14 melanoma,0.874 µM
same,TGI,M14 melanoma,4.4 µM
same,GI50,HCT-15 colon,0.549 µM
same,TGI,HCT-15 colon,5.6 µM
same,GI50,ACHN renal,1.01 µM
same,TGI,ACHN renal,2.27 µM
same,GI50,SW-620 colon,1.15 µM
same,TGI,SW-620 colon,2.82 µM
same,GI50,CAKI-1 renal,1.74 µM
same,TGI,CAKI-1 renal,3.54 µM
same,GI50,MDA-MB-231 breast,0.421 µM
same,TGI,MDA-MB-231 breast,1.76 µM
same,GI50,SN12C renal,1.49 µM
same,TGI,SN12C renal,6.01 µM
same,GI50,SF-295 CNS,2 µM
same,TGI,SF-295 CNS,7.73 µM
same,GI50,HS 578T breast,1.09 µM
same,TGI,HS 578T breast,71.9 µM
same,GI50,OVCAR-4 ovarian,1.04 µM
same,TGI,OVCAR-4 ovarian,2.26 µM
same,GI50,IGROV1 ovarian,1.26 µM
same,TGI,IGROV1 ovarian,2.85 µM
